Results as given in US10144742B2 (Millennium Pharmaceuticals, Inc., priority 2014, dated 2018).
Read-outs that look alike come from different tables or passages of the source.

What was measured:
hNAMPT protein = hNAMPT protein (Homo sapiens (Human), UniProt P43490); assay: NAMPT enzyme assay (TR-FRET/HTRF, BodiPY ligand, anti 6His-Tb); assay type: binding; settings: for IC50: NAMPT IC50 range class, read-out: IC50; for inhibition at 1 µM: read-out: Percent Inhibition
Method in brief: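 Compound or DMSO was incubated for 1 h at room temperature, protected from light, with BodiPY ligand and hNAMPT labelled by terbium anti-6His antibody. The 520 nm to 486 nm emission ratio after 320 nm excitation gave inhibition versus vehicle, from which concentration-response curves yielded IC50.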

PC3 cells = assay: PC3 growth inhibition (Cell-titer glo, 72 hours); assay type: cell-based; settings: Homo sapiens, read-out: Percent Inhibition (PC3 growth inhibition); for inhibition at 1.667 µM: compound concentration 1.667 μM
Method in brief: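 Compounds in AIM serum-free medium were applied for 72 h at 37 °C, 5% CO2 to PC3 cells plated overnight from RPMI1640 culture. Luminescence after 10 min CellTiter-Glo, normalised to DMSO, gave % viability at 1 μM or 1.667 μM, or GI50/LD50.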

[1] = PC-3, compound concentration 1 μM, PC3 cells, 72 hours, Cell-titer glo
[2] = PC-3, PC3 cells, 72 hours, Cell-titer glo

hNAMPT protein, sequence (P43490 whole entry): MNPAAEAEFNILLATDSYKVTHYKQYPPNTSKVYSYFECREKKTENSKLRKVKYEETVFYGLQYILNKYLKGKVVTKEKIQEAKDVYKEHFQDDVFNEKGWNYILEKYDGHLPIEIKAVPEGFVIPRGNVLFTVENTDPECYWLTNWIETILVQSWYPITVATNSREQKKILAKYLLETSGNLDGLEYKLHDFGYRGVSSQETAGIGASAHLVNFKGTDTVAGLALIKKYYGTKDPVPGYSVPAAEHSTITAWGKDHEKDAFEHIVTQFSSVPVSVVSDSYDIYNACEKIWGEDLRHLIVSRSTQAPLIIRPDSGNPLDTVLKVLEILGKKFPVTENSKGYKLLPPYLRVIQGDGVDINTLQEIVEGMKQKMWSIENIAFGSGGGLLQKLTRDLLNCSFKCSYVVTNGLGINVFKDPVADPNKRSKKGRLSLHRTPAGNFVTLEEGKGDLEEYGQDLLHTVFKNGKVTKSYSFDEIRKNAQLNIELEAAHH

| Structure (SMILES) | IC50 (hNAMPT protein) [nM] | inhibition at 1 µM (hNAMPT protein; compound concentration 1 μM) [%] | inhibition at 1 µM (PC3 cells; [1]) [%] | inhibition at 1.667 µM (PC3 cells; [2]) [%] | inhibition at 1 µM (hNAMPT protein) [%] | inhibition at 1 µM (PC3 cells; PC-3, 72 h) [%] |
| --- | --- | --- | --- | --- | --- | --- |
| CN1CCN(c2nc3ccc(C(=O)NCCCn4ccnc4)cc3nc2-c2ccccc2)CC1=O [Compound I-81, N-[3-(1H-imidazol-1-yl)propyl]-2-(4-methyl-3-oxopiperazin-1-yl)-3-phenylquinoxaline-6-carboxamide] | 500 to 1000 | 63 | -7 |  |  |  |
| Cn1cncc1CCNC(=O)c1ccc2nc(N3CCC(N4CCOCC4)CC3)c(-c3ccc(F)cc3)nc2c1 [Compound I-82, 3-(4-Fluorophenyl)-N-[2-(1-methyl-1H-imidazol-5-yl)ethyl]-2-[4-(morpholin-4-yl)piperidin-1-yl]quinoxaline-6-carboxamide] | < 100 | 98 |  | 2 |  |  |
| O=C(NCCn1cccn1)c1ccc2nc(-c3ccc(F)cc3)c(-c3ccc(F)cc3)nc2c1 [Compound I-83, 2,3-bis(4-fluorophenyl)-N-[2-(1H-pyrazol-1-yl)ethyl]quinoxaline-6-carboxamide] | 2000 to 10000 | 33 | 96 |  |  |  |
| CN(CCc1cccnc1)C(=O)c1ccc2nc(-c3ccc(F)cc3)c(-c3ccc(F)cc3)nc2c1 [Compound I-84, 2,3-bis(4-fluorophenyl)-N-methyl-N-[2-(pyridin-3-yl)ethyl]quinoxaline-6-carboxamide] | 2000 to 10000 | 17 | 85 |  |  |  |
| CC(C)(C)OC(=O)NCc1cccc(-c2nc3cc(C(=O)NCCCn4ccnc4)ccc3nc2-c2ccccc2)c1 [Compound I-85, tert-Butyl [3-(7-{[3-(1H-imidazol-1-yl)propyl]carbamoyl}-3-phenylquinoxalin-2-yl)benzyl]carbamate] | 2000 to 10000 |  |  |  | 25 | 8 |
| O=C(NCCOc1cccnc1)c1ccc2nc(Cl)c(-c3ccc(F)cc3)nc2c1 [Compound I-86, 2-chloro-3-(4-fluorophenyl)-N-[2-(pyridin-3-yloxy)ethyl]quinoxaline-6-carboxamide] | < 100 | 62 |  | 3 |  |  |
| O=C(NCCCn1ccnc1)c1ccc2nc(-c3ccccc3)c(N3CCCC(O)C3)nc2c1 (stereo not drawn) [Compound I-87, 3-(3-hydroxypiperidin-1-yl)-N-[3-(1H-imidazol-1-yl)propyl]-2-phenylquinoxaline-6-carboxamide] | 1000 to 2000 | 39 | -7 |  |  |  |
| O=C(NCCCn1ccnc1)c1ccc2nc(CN3CCOCC3)c(-c3ccccc3)nc2c1 [Compound I-88, N-[3-(1H-imidazol-1-yl)propyl]-2-(morpholin-4-ylmethyl)-3-phenylquinoxaline-6-carboxamide] | 1000 to 2000 | 41 | -7 |  |  |  |
| NS(=O)(=O)c1cccc(-c2nc3ccc(C(=O)NCCCn4ccnc4)cc3nc2-c2ccccc2)c1 [Compound I-89, N-[3-(1H-imidazol-1-yl)propyl]-3-phenyl-2-(3-sulfamoylphenyl)quinoxaline-6-carboxamide] | 100 to 500 | 68 | -7 |  |  |  |
| O=C(NCCCn1ccnc1)c1ccc2nc(N3CCC(O)C3)c(-c3ccccc3)nc2c1 (stereo not drawn) [Compound I-90, 2-(3-hydroxypyrrolidin-1-yl)-N-[3-(1H-imidazol-1-yl)propyl]-3-phenylquinoxaline-6-carboxamide] | 500 to 1000 | 54 | -7 |  |  |  |
| COc1cccc(-c2nc3cc(C(=O)NCCCc4ncc[nH]4)ccc3nc2N2CCC(N3CCOCC3)CC2)c1 [Compound I-91, N-[3-(1H-imidazol-2-yl)propyl]-3-(3-methoxyphenyl)-2-[4-(morpholin-4-yl)piperidin-1-yl]quinoxaline-6-carboxamide] | < 100 | 99 |  | 2 |  |  |
| O=C(NCCCn1ccnc1)c1ccc2nc(-c3ccccn3)c(-c3ccccc3)nc2c1 [Compound I-92, N-[3-(1H-imidazol-1-yl)propyl]-3-phenyl-2-(pyridin-2-yl)quinoxaline-6-carboxamide] | 1000 to 2000 | 48 | -7 |  |  |  |
| O=C(NCCc1cccnc1)c1ccc2nc(-c3ccccc3)c(-c3ccccc3)nc2c1 [Compound I-93, 2,3-diphenyl-N-[2-(pyridin-3-yl)ethyl]quinoxaline-6-carboxamide] | 500 to 1000 | 52 | 15 |  |  |  |
| O=C(NCCCc1cn[nH]c1)c1ccc2nc(N3CCCCC3)c(-c3ccc(F)cc3)nc2c1 [Compound I-94, 3-(4-fluorophenyl)-2-(piperidin-1-yl)-N-[3-(1H-pyrazol-4-yl)propyl]quinoxaline-6-carboxamide] | < 100 | 92 |  | 34 |  |  |
| O=C(NCCCn1ccnc1)c1ccc2nc(-c3ccccc3)c(-c3cccc(OC(F)(F)F)c3)nc2c1 [Compound I-95, N-[3-(1H-imidazol-1-yl)propyl]-2-phenyl-3-[3-(trifluoromethoxy)phenyl]quinoxaline-6-carboxamide] | 500 to 1000 | 61 | 1 |  |  |  |
| O=C(NCCCn1ccnc1)c1ccc2nc(N3CCOCC3)c(-c3ccccc3)nc2c1 [Compound I-96, N-[3-(1H-imidazol-1-yl)propyl]-2-(morpholin-4-yl)-3-phenylquinoxaline-6-carboxamide] | 100 to 500 | 82 | 0 |  |  |  |
| O=C(NCCCn1ccnc1)c1ccc2nc(-c3ccccc3)c(-c3ccc4[nH]ccc4c3)nc2c1 [Compound I-97, N-[3-(1H-imidazol-1-yl)propyl]-3-(1H-indol-5-yl)-2-phenylquinoxaline-6-carboxamide] | 500 to 1000 | 58 | 1 |  |  |  |
| COc1ccc(-c2nc3ccc(C(=O)NCCCn4ccnc4)cc3nc2-c2ccccc2)cc1 [Compound I-99, N-[3-(1H-imidazol-1-yl)propyl]-2-(4-methoxyphenyl)-3-phenylquinoxaline-6-carboxamide] | 100 to 500 | 75 | -8 |  |  |  |
| O=C(NCCCn1ccnc1)c1ccc2nc(N3CCCC(O)C3)c(-c3ccccc3)nc2c1 (stereo not drawn) [Compound I-100, 2-(3-hydroxypiperidin-1-yl)-N-[3-(1H-imidazol-1-yl)propyl]-3-phenylquinoxaline-6-carboxamide] | 100 to 500 | 85 | -7 |  |  |  |
| CS(=O)(=O)C1CCN(c2nc3cc(C(=O)NCCCn4ccnc4)ccc3nc2-c2ccccc2)C1 (stereo not drawn) [Compound I-101, N-[3-(1H-imidazol-1-yl)propyl]-3-[3-(methylsulfonyl)pyrrolidin-1-yl]-2-phenylquinoxaline-6-carboxamide] | 2000 to 10000 | 16 | 7 |  |  |  |
| O=C(NCCc1ncc[nH]1)c1ccc2nc(Cl)c(-c3ccc(F)cc3)nc2c1 [Compound I-102, 2-chloro-3-(4-fluorophenyl)-N-[2-(1H-imidazol-2-yl)ethyl]quinoxaline-6-carboxamide] | 500 to 1000 | 38 |  | > 99 |  |  |
| O=C(NCCCc1ccnnc1)c1ccc2nc(N3CCCCC3)c(-c3ccc(F)cc3)nc2c1 [Compound I-103, 3-(4-fluorophenyl)-2-(piperidin-1-yl)-N-[3-(pyridazin-4-yl)propyl]quinoxaline-6-carboxamide] | < 100 | 96 |  | 58 |  |  |
| O=C(NCCCc1ncc[nH]1)c1ccc2nc(N3CCOCC3)c(-c3ccc(Cl)cc3)nc2c1 [Compound I-104, 3-(4-chlorophenyl)-N-[3-(1H-imidazol-2-yl)propyl]-2-(morpholin-4-yl)quinoxaline-6-carboxamide] | < 100 | 100 |  | 2 |  |  |
| O=C(NCCCn1ccnc1)c1ccc2nc(N3CCC(O)CC3)c(-c3ccccc3)nc2c1 [Compound I-105, 2-(4-hydroxypiperidin-1-yl)-N-[3-(1H-imidazol-1-yl)propyl]-3-phenylquinoxaline-6-carboxamide] | < 100 | 92 | -7 |  |  |  |
| N#CC1CCN(c2nc3ccc(C(=O)NCCCn4ccnc4)cc3nc2-c2ccccc2)C1 (stereo not drawn) [Compound I-106, 2-(3-cyanopyrrolidin-1-yl)-N-[3-(1H-imidazol-1-yl)propyl]-3-phenylquinoxaline-6-carboxamide] | 500 to 1000 | 60 | -5 |  |  |  |
| O=C(NCCCn1ccnc1)c1ccc2nc(-c3ccco3)c(-c3ccco3)nc2c1 [Compound I-107, 2,3-di(2-furyl)-N-[3-(1H-imidazol-1-yl)propyl]quinoxaline-6-carboxamide] | 1000 to 2000 | 47 | 102 |  |  |  |
| Cn1ccc(CCNC(=O)c2ccc3nc(-c4ccc(F)cc4)c(-c4ccc(F)cc4)nc3c2)n1 [Compound I-108, 2,3-bis(4-fluorophenyl)-N-[2-(1-methyl-1H-pyrazol-3-yl)ethyl]quinoxaline-6-carboxamide] | 1000 to 2000 | 44 | 93 |  |  |  |
| COc1nc2ccc(C(=O)NCCCc3ncc[nH]3)cc2nc1-c1ccc(Cl)cc1 [Compound I-109, 3-(4-chlorophenyl)-N-[3-(1H-imidazol-2-yl)propyl]-2-methoxyquinoxaline-6-carboxamide] | < 100 | 97 |  | 36 |  |  |
